“And” between values parts separate entries of the source, which are not always exact repeats. Equal entries are not always repeated.
Experiments:
P. aeruginosa = experiment: Fractional inhibitory concentration, checkerboard MIC; type: cell-based, Pseudomonas aeruginosa; details: for MIC in combination: PT combined with tobramycin; for MIC: Pseudomonas aeruginosa
S. aureus = experiment: as above; type: cell-based, Staphylococcus aureus; details: for MIC in combination: PT combined with tobramycin; for MIC: Staphylococcus aureus
S. aureus UAMS-1 = experiment: Selleck library screen in presence of sub-inhibitory polymyxin B/trimethoprim; type: cell-based, Staphylococcus aureus; set-up: key: Growth (+); no growth (−)
Procedure: To identify agents that potentiate the antimicrobial activity of polymyxin B/trimethoprim we first determined the highest concentration of the polymyxin B/trimethoprim combination that allowed growth of P. aeruginosa strain PAO1 and S. aureus strain UAMS-1.
For Selleck library screening, individual wells of 96-well microtiter plates containing 88 μl of fresh media were inoculated with approximately 10^5 CFUs of P. aeruginosa strain PAO1 or S. aureus UAMS-1. Next, 2 μl of polymyxin B/trimethoprim was added to a final concentration of 0.2 μg ml^−1 or 1.25 μg ml^−1 for PA01 and UAMS-1, respectively. Library members were then added at either 5 μM or 50 μM final concentration. Plates were incubated at 37° C. for 16 hours and hits were identified as wells with no visible growth.
To do so, 10^5 CFUs of S. aureus strain UAMS-1 were inoculated in individual wells of a microtiter plate supplemented with 1.2 μg ml^−1 of polymyxin B/trimethoprim, (0.25×MIC). Library members were added at low (5 μM) or high (50 μM) concentrations and then scored for agents that inhibited growth following overnight incubation. Such agents were expected to represent compounds that display antimicrobial activity on their own and/or that potentiate the antimicrobial activity of polymyxin B/trimethoprim.

[1] = system: P. aeruginosa strain PA01 biofilms; experiment: Biofilm susceptibility; type: cell-based, Pseudomonas aeruginosa; details: established PA01 biofilm, 24 hrs treatment, 32×MIC
Description: (§1) Bacterial strains used in these studies include the conventional laboratory strains Pseudomonas aeruginosa PA01 and Staphylococcus aureus UAMS-1, both of which are antibiotic susceptible and capable of forming robust biofilms. See […], Thomas J R, Nelson […]. Role of the accessory gene regulator (agr) in pathogenesis of staphylococcal osteomyelitis. Infection and immunity 1995; 63:3373-3380. Seven clinical keratitis isolates of Pseudomonas aeruginosa, were collected from the Flaum Eye Institute, Rochester N.Y. and 25 clinical isolates of Staphylococcus aureus from geographically distinct regions of the country where purchased from International Health Management Associates (IHMA; Schaumburg, Ill.). […] After 24 hrs the remaining media and non-adherent cells were removed, biofilms were suspended in 0.8% NaCl and plated to quantify surviving bacteria. […] Biofilms were treated in increasing increments ranging from 0 to 64×MIC.

[2] = system: S. aureus UAMS-1 biofilms; experiment: Biofilm susceptibility; type: cell-based, Staphylococcus aureus; details: established S. aureus biofilm, any concentration tested
Description: as §1, with “Ill.). For experiments requiring planktonic cultures, the indicated organism was grown overnight in Luria-Bertani broth (LB; […] Biofilms were established by inoculating individual wells of flat-bottom polystyrene plates (Falcon, Corning Life Sciences; Durham, N.C.) with overnight cultures of the indicated organism into 200 ul of fresh LB to a final concentration of 1×10^7 CFU ml^-1. Plates were placed in a 37° C.-humidified incubator for 72 hours to allow static biofilm formation. Non-adherent cells were aspirated and biofilms were washed twice with phosphate-buffered saline prior to each experiment.” for “Ill.).”

SMILES: NC[C@H]1O[C@H](O[C@H]2[C@H](O)[C@@H](O[C@H]3O[C@H](CO)[C@@H](O)[C@H](N)[C@H]3O)[C@H](N)C[C@@H]2N)[C@H](N)C[C@@H]1O [Tobramycin, tobramycin]
- MIC in combination (P. aeruginosa; P. aeruginosa PAO1): 0.12 µg/mL and 0.24 µg/mL
- MIC in combination (P. aeruginosa; P. aeruginosa RW01): 0.12 µg/mL
- MIC in combination (P. aeruginosa; P. aeruginosa RW02): 0.06 µg/mL
- MIC in combination (P. aeruginosa; P. aeruginosa RW03): 0.12 µg/mL
- MIC in combination (P. aeruginosa; P. aeruginosa RW04): 0.12 µg/mL
- MIC in combination (P. aeruginosa; P. aeruginosa RW05): 0.24 µg/mL
- MIC in combination (P. aeruginosa; P. aeruginosa RW06): 0.12 µg/mL
- MIC in combination (P. aeruginosa; P. aeruginosa RW07): 0.12 µg/mL
- MIC (P. aeruginosa; P. aeruginosa RW01): 0.24 µg/mL
- MIC (P. aeruginosa; P. aeruginosa RW02): 0.24 µg/mL
- MIC (P. aeruginosa; P. aeruginosa RW03): 0.24 µg/mL
- MIC (P. aeruginosa; P. aeruginosa RW04): 0.48 µg/mL
- MIC (P. aeruginosa; P. aeruginosa RW05): 0.48 µg/mL
- MIC (P. aeruginosa; P. aeruginosa RW06): 0.24 µg/mL
- MIC (P. aeruginosa; P. aeruginosa RW07): 0.24 µg/mL
- MIC (P. aeruginosa; PAO1, P. aeruginosa PAO1): 0.48 µg/mL
- MIC in combination (S. aureus; S. aureus 1071788): 0.48 µg/mL
- MIC in combination (S. aureus; S. aureus 1094094): 3.9 µg/mL
- MIC in combination (S. aureus; S. aureus 1094140): 1.9 µg/mL
- MIC in combination (S. aureus; S. aureus 1094147): 3.9 µg/mL
- MIC in combination (S. aureus; S. aureus 1094166): 0.48 µg/mL
- MIC in combination (S. aureus; S. aureus 1094178): 7.8 µg/mL
- MIC in combination (S. aureus; S. aureus 1097612): 3.9 µg/mL
- MIC in combination (S. aureus; S. aureus 1097630): 3.9 µg/mL
- MIC in combination (S. aureus; S. aureus 1101442): 0.97 µg/mL
- MIC in combination (S. aureus; S. aureus 1103430): 0.48 µg/mL
- MIC in combination (S. aureus; S. aureus 1110936): 0.48 µg/mL
- MIC in combination (S. aureus; S. aureus 1111063): 3.9 µg/mL
- MIC in combination (S. aureus; S. aureus 1122181): 3.9 µg/mL
- MIC in combination (S. aureus; S. aureus 1122187): 0.48 µg/mL
- MIC in combination (S. aureus; S. aureus 1122190): 3.9 µg/mL
- MIC in combination (S. aureus; S. aureus 1122197): 0.48 µg/mL
- MIC in combination (S. aureus; S. aureus 1125120): 15.6 µg/mL
- MIC in combination (S. aureus; S. aureus 1132822): 0.97 µg/mL
- MIC in combination (S. aureus; S. aureus 1142776): 0.48 µg/mL
- MIC in combination (S. aureus; S. aureus 1144105): 0.48 µg/mL
- MIC in combination (S. aureus; S. aureus UAMS-1): 0.48 µg/mL
- MIC (S. aureus; S. aureus 1071788): 0.97 µg/mL
- MIC (S. aureus; S. aureus 1094094): 3.9 µg/mL
- MIC (S. aureus; S. aureus 1094140): 7.8 µg/mL
- MIC (S. aureus; S. aureus 1094147): 7.8 µg/mL
- MIC (S. aureus; S. aureus 1094166): 1.9 µg/mL
- MIC (S. aureus; S. aureus 1094178): 7.8 µg/mL
- MIC (S. aureus; S. aureus 1097612): 15.6 µg/mL
- MIC (S. aureus; S. aureus 1097630): 7.8 µg/mL
- MIC (S. aureus; S. aureus 1101442): 3.9 µg/mL
- MIC (S. aureus; S. aureus 1103430): 1.9 µg/mL
- MIC (S. aureus; S. aureus 1110936): 1.9 µg/mL
- MIC (S. aureus; S. aureus 1111063): 7.8 µg/mL
- MIC (S. aureus; S. aureus 1122181): 7.8 µg/mL
- MIC (S. aureus; S. aureus 1122187): 1.9 µg/mL
- MIC (S. aureus; S. aureus 1122190): 7.8 µg/mL
- MIC (S. aureus; S. aureus 1122197): 1.9 µg/mL
- MIC (S. aureus; S. aureus 1125120): 15.6 µg/mL
- MIC (S. aureus; S. aureus 1132822): 3.9 µg/mL
- MIC (S. aureus; S. aureus 1142776): 1.9 µg/mL
- MIC (S. aureus; S. aureus 1144105): 1.9 µg/mL
- MIC (S. aureus; S. aureus UAMS-1): 1.9 µg/mL
- S. aureus growth, 5 μM (S. aureus UAMS-1; drug 5 μM in presence of 1.2 μg ml^−1 polymyxin B/trimethoprim): +
- S. aureus growth, 50 μM (S. aureus UAMS-1; drug 50 μM in presence of 1.2 μg ml^−1 polymyxin B/trimethoprim): −
- reduction in biofilm-associated CFU [1]: 5 log
- activity against biofilm-associated cells [2]: neither tobramycin, polymyxin B/trimethoprim nor their combination displayed significant activity

Reference: US11096923B2, “Pharmaceutical composition containing polymyxin B/trimethoprim based therapeutics” (University of Rochester, priority 2016, dated 2021)
